{"source": "patent US12103941B2", "about": "“Radiation-activatable platinum complex, its preparation and therapeutic use” (City University of Hong Kong, priority 2022, dated 2024)", "key": {"[1]": {"test": "Stability of complex 1 in the dark (HPLC)", "type": "physicochemical", "details": "10 μM, PBS pH 7.4, RPMI-1640 culture medium and A2780 cell lysate, no radiation", "experimental": "The stability of complex 1, i.e., complex 1 in phosphate buffer saline (PBS) buffer, cell culture medium such as RPMI-1640, and cell lysate in the dark (i.e., in the absence of radiation) was determined. To determine the stability of complex 1 in PBS, complex 1 (10 μM) was dissolved in PBS buffer (pH 7.4, 1% DMF) and incubated at 310 K in the dark. At 24 h, the sample was analyzed by HPLC to determine the percentage of Pt(IV) remained. To determine the stability of complex 1 in complete RPMI-1640 culture medium (containing 10% FBS, 2 mM L-Glutamine, and 100 IU mL^−1 penicillin/streptomycin) or cell lysate (from A2780 cells by 1% triton X-100 lysis, protein concentration adjusted to 1.5 mg mL^−1), complex 1 was dissolved in these two solutions, respectively (with 1% DMF). At determined time intervals, 50 μL of samples were taken out and diluted with 200 μL MeOH with subsequent centrifugation at 14,000×g to remove proteins, and then the supernatant was analyzed by HPLC."}, "[2]": {"test": "Sono-activation (sono-induced reduction) of complex 1 in PBS, HPLC", "type": "physicochemical", "details": "4 W", "experimental": "The sono-activation property of complex 1 was investigated. A PBS solution (with 1% DMF) containing 10 μM complex 1 with or without 5 mM sodium ascorbate (i.e. the sample), was continuously treated with ultrasound (1.75 MHz, 4 W) for a total period of time of 60 min. The sample temperature was monitored with an FLIR thermographic camera and maintained at 37° C. throughout the experiment. […] (FIGS. 6C to 6E), indicating the reduction of Pt(IV) to Pt(II) along with the dissociation of the axial ligand 1 and hydroxide ligand upon sono-activation (i.e. complex 1 undergoes a sono-induced reduction)."}, "[3]": {"test": "Photo-activation of complex 1 by 808 nm laser, HPLC", "type": "physicochemical", "details": "10 μM in PBS (1% DMF), 5 mM ascorbate, laser 808 nm, 3.3 mW/cm^2, 15 min", "experimental": "The inventors have further investigated if complex 1 could be activated by other types of radiation such as EM radiation, in particular light such as infrared light. A PBS buffer solution (with 1% DMF) containing 10 μM complex 1 with 5 mM ascorbate in a quartz cuvette was irradiated with a laser (808 nm, 3.3 mW/cm^2) for 15 min under stirring. The sample was analysed by HPLC. […] In view of the similar profiles, the inventors believe that complex 1 would also release singlet oxygen upon photo-activation along with the aforementioned photo-induced reduction."}, "HeLa cells": {"tested_on": "HeLa cells", "test": "Cytotoxicity, MTT assay, HeLa cells", "type": "cell-based, human", "details": "IC50 without vs with radiation", "experimental": "(§1) The biological activity of complex 1 was evaluated. Human breast carcinoma MCF-7 cells, human cervix carcinoma HeLa cells, mammary breast carcinoma 4T1 cells, human lung carcinoma A549 cells, and cisplatin-resistant A549cisR cells were cultured in DMEM containing 10% FBS and 100 IU mL^−1 penicillin/streptomycin. Human ovarian carcinoma A2780 and A2780cisR cells were cultured in RPMI-1640 containing 10% FBS, 2 mM L-glutamine, and 100 IU mL^−1 penicillin/streptomycin. Human lung fibroblast MRC-5 cells were cultured in MEM containing 10% FBS, 1% NEAA, 1% L-Glutamine, 1% sodium pyruvate, and 100 IU mL^−1 penicillin/streptomycin. In every two passages of A2780cisR and A549cisR cells, 5 μM of cisplatin was added to maintain the platinum resistance. All the cells were cultured in humidified incubators at 37° C. with 5% CO2. Cell counting was performed with a hemocytometer. Cytotoxicity test was performed by exposing the cancer cells with complex 1. The viability of cancer cells exposed was evaluated by means of MTT assay. Specifically, the cells were first pre-seeded in 6-well plates until the confluency reached 80%. Then, the medium was removed and replaced with fresh medium containing different concentrations of complex 1 with 0.5% DMF (0, 2.5, 5, 12.5, 25, or 40 μM). After 30 min, the medium was aspirated, the well was washed with PBS for three times. […]"}, "[4]": {"tested_on": "different cancer cell lines (MCF-7, HeLa, 4T1, A549, A549cisR, A2780, A2780cisR)", "test": "Cytotoxicity, MTT assay, all tested cancer cell lines (FIG. 9)", "type": "cell-based", "experimental": "as §1"}, "[5]": {"tested_on": "Human lung fibroblast MRC-5 cells", "test": "Cell viability of normal MRC-5 cells (FIG. 10)", "type": "cell-based", "details": "absence of ultrasound, 24 h", "experimental": "as §1"}}}
{"smiles": "CCCN1/C(=C/C=C2\\CCCC(/C=C/C3=[N+](CCC)c4ccccc4C3(C)C)=C2Oc2ccc(CCC(=O)[O][Pt]3([NH2])([NH2])([OH])[O]C(=O)C4(CCC4)C(=O)[O]3)cc2)C(C)(C)c2ccccc21", "note": "[complex 1, cyaninplatin]", "values": [{"measurement": "time complex is stable in the dark (single HPLC peak)", "setting": "[1]", "value": "≥ 6", "unit": "h"}, {"measurement": "complex 1 reduced (to Pt(II)) after sono-activation", "setting": "[2]; 10 μM in PBS (1% DMF), 5 mM ascorbate, ultrasound 1.75 MHz, about 60 min, 37° C.", "value": "about 95%"}, {"measurement": "conditions required for sono-induced reduction", "setting": "[2]; 10 μM in PBS, with or without 5 mM ascorbate, with or without ultrasound 1.75 MHz", "value": "only occurs under the condition where both ascorbate and ultrasound are present"}, {"measurement": "photo-activation / photo-induced reduction to Pt(II) complex", "setting": "[3]", "value": "can be photo-activated"}, {"measurement": "enhancement of cytotoxicity upon exposure to radiation", "setting": "HeLa cells", "value": "about 6 times"}, {"measurement": "activity on tested cells upon ultrasound treatment", "setting": "[4]; ultrasound 3.5 W, 15 min", "value": "very active"}, {"measurement": "toxicity to tested cells without ultrasound treatment", "setting": "[4]; without the ultrasound treatment", "value": "generally non-toxic"}, {"measurement": "toxicity to normal MRC-5 cells", "setting": "[5]", "value": "non-toxic"}]}
